The values below come from paper PMC9403717, “Ruthenium complexes show potent inhibition of AKR1C1, AKR1C2, and AKR1C3 enzymes and anti-proliferative action against chemoresistant ovarian cancer cell line” (Frontiers in Pharmacology, 2022).

The assay relates to HIO80 cells. Briefly: Cell proliferation assay (alamarBlue), control cell line HIO80. Type of assay: cell-based, human. The following applies: 48 h incubation. How it is done: The cell line COV362 (CVCL_2,420) was originally established from a high-grade ovarian serous adenocarcinoma from a metastatic site in the pleural effusion ([van den Berg-Bakker et al., 1993]) and was purchased from ECACC (ECACC 07071910) as p37 on 13 October 2017. The growth medium for COV362 cells was DMEM (D5546; Sigma–Aldrich GmbH), with 10% FBS (F9665; Sigma–Aldrich GmbH) and 2 mM L-glutamine (G7513; Sigma–Aldrich GmbH). COV362 cells in passages p37 + 12 to p37 + 17 were used in this study and seeded at a concentration of 3.5 cells/ml × 10^4 cells/ml for proliferation studies and at a concentration of 5.3 × 10^5/ml for migration studies. The cell line OVCAR-4 (CVCL_1,627) is a high-grade serous ovarian adenocarcinoma cell line established from a patient refractory to cisplatin ([Johnson et al., 1997]). The cell line was purchased from Merck on 19 March 2021. The growth medium for OVCAR-4 cells was RPMI-1640 (Sigma R5586) supplemented with 2 mM glutamine (G7513; Sigma–Aldrich GmbH), 10% FBS (F9665; Sigma–Aldrich GmbH), 0.25 μg/ml insulin (I9278; Sigma–Aldrich GmbH). OVCAR-4 cells in passages p+6 to p+15 were used in this study and seeded at a concentration of 6 cells/ml × 10^4 cells/ml. The control cell line HIO80 (CVCL_E274) was obtained from Andrew K. Godwin (University of Kansas Medical Center, Kansas, United States) on 20 October 2017 as p+72. It was originally established from ovarian surface epithelium ([Yang et al., 2004]). HIO80 cells were grown in RPMI medium (R5886, Sigma–Aldrich GmbH) supplemented with 10% FBS (F9665; Sigma–Aldrich GmbH), 2 mm L-glutamine (G7513; Sigma–Aldrich GmbH) and 6.6 µg/ml insulin (I9278; Sigma–Aldrich GmbH). HIO80 cells in passages p72 + 8 to p72 + 19 were used in this study and seeded at a concentration of 2 × 10^4 cells/mL. HIO80 in passage +10 was authenticated by short tandem repeats (STR) profiling performed by ATCC on 22 February 2019. Cells were grown in a humidified atmosphere containing 5% CO2 at 37°C. All cell lines were negative for mycoplasma infection which was periodically tested using MycoAlert^TM mycoplasma detection kit (Lonza, Basel, Switzerland).
The effect of ruthenium compounds on the proliferation of ovarian cancer cell lines COV362 and OVCAR-4 and the control cell line HIO80 was analyzed using the cell proliferation reagent alamarBlue HS (A50101; Thermo Fisher Scientific) following the manufacturer’s instructions.
Cells were seeded in 96-well plates in 100 µL of medium and allowed to adhere and grow for 24 h. […] Cisplatin and carboplatin purchased from Sigma–Aldrich GmbH (cat. number: PHR1624, lot: LRAB7778) and (cat. number: C2538, lot: MKCK1243) were dissolved in sterile water. Working solutions were prepared by a serial dilution of stock solutions with a culture medium. After the initial incubation, cells were treated with ruthenium complexes, cisplatin, and carboplatin. A range of final concentrations between 0.001 and 300 µM were used for ruthenium complexes and cisplatin, and between 0.001 µM and 1 mM for carboplatin. After 48 h of incubation, plates were incubated with 20 µL of alamarBlue. After 4 h absorbance was measured with a BioTek microplate spectrophotometer at 570 nm, with the reference wavelength set at 600 nm. First, the background value of a well containing the active substance without cells was subtracted, then the average values for duplicates/triplicates were calculated. The absorbance of the well containing only untreated cells was used as a normalization control. The half-maximal […] concentration (IC50) was determined for all ruthenium complexes with a growth-inhibiting effect on cells by constructing a dose-response curve (Graph Pad Prism, Version 8.0).

A value given as a limit tells only on which side of the number the result lay.

A word on the IC50: it is the concentration at which inhibition is half-maximal. Low readings indicate greater potency in that assay, high ones weaker potency in that assay. Regarding `Cc1ccc(C(C)C)cc1.O=C(C=C([O][Ru][Cl])c1ccc(I)cc1)C(F)(F)F` [Compound 1], the IC50 was found to be 41.9 µM. The same measure for `C1N2CN3CN1CP(C2)C3.Cc1ccc(C(C)C)cc1.F[P-](F)(F)(F)(F)F.O=C(C=C([O][Ru+])c1ccc(I)cc1)C(F)(F)F` [Compound 2]: 92 µM; for `CN(C)c1ccc(C(=CC(=O)C(F)(F)F)[O][Ru][Cl])cc1.Cc1ccc(C(C)C)cc1` [Compound 3, (η^6-p-cymene)chlorido(4,4,4-trifluoro-1-(4-(dimethylamino)phenyl)-1,3-butandionato)ruthenium(II)]: 34.7 µM; for `Cc1ccc(C(C)C)cc1.O=C(C=C([O][Ru][Cl])c1ccc2c(c1)OCO2)C(F)(F)F` [Compound 5]: 60.5 µM.

Turning to `C1N2CN3CN1CP(C2)C3.Cc1ccc(C(C)C)cc1.F[P-](F)(F)(F)(F)F.O=C(C=C([O][Ru+])c1ccc2c(c1)OCO2)C(F)(F)F` [Compound 6], the IC50 came to 187 µM. The same measure for `Cc1ccc(C(C)C)cc1.[Cl-].[O-]c1c(I)cc(Cl)c2cccnc12.[Ru+2]` [Compound 7]: 14.3 µM. In turn, `C1N2CN3CN1CP(C2)C3.Cc1ccc(C(C)C)cc1.F[P-](F)(F)(F)(F)F.[O-]c1c(I)cc(Cl)c2cccnc12.[Ru+2]` [Compound 8] displayed an IC50 of 32.5 µM. Next, `Cc1ccc(C(C)C)cc1.O=[N+]([O-])c1ccc([O][Ru][Cl])c2ncccc12` [Compound 9, (η ^6-p-Cymene) (nitroxolinato)chloridoruthenium (II)]: 12.8 µM; `C1N2CN3CN1CP(C2)C3.Cc1ccc(C(C)C)cc1.F[P-](F)(F)(F)(F)F.O=[N+]([O-])c1ccc([O][Ru+])c2ncccc12` [Compound 10, (η ^6-p-cymene)(nitroxolinato)(pta)ruthenium(II) hexafluorophosphate]: above 200 µM.
